Reference: patent US20110281852A1 (priority 2010, published 2011)

Assays:
GATA-2 [1] = assay: Immunoblot, GATA-2 protein in 3T3-L1 cells; format: cell-based, mouse; details: DM + 1, 2, 4, 8 μM, 8 days, p<0.05
Protocol: Immunoblot Analysis: GATA-2 and GATA-3 protein expression were assessed by Western blot. […] The cells were washed twice with PBS, lysed in a lysis buffer (HEPES-Tx-PI buffer: 10 mM HEPES, 5 mM EDTA, 350 mM Sucrose, 1 ug/ml leupeptin, 1 ug/ml pepstatin, 1% Triton-X, 1 mM PMSF, diluted in water), processed with a 25G needle and centrifuged at 10,000 rpm for 5 min. Protein concentration was determined using the […] according to the Pierce Protein Assay Protocol. Total protein (50 μg) was used for GATA-2 and GATA-3 analysis and was separated by electrophoresis using BioRad Electrophoretic System (60 V for 1 hour followed by 90 V for 5 hours). The protein was then transferred to nitrocellulose membranes at 35 V overnight. The membrane was blocked for 1 hour at room temperature in 5% nonfat milk in Tris-buffered saline (TBS), then washed with Tween-20-TBS (TTBS, 0.1% Tween-20) three times (15 min, 5 min, 5 min), followed by incubation with primary antibodies of GATA-2 (dilution 1:500), GATA-3 (dilution 1:500), β-Actin (dilution 1:1000) at room temperature for 2 hours. The membrane was rinsed three times (15 min, 5 min, 5 min), then incubated at room temperature for 1 hour with Horseradish peroxidase-conjugated second antibody (1:10,000). The membrane was then incubated in ECL reagent for 1 minute. Protein was visualized using UVP image analysis system.

3T3-L1 cells = assay: Oil-Red-O staining and quantification, clozapine/risperidone induced adipogenesis in 3T3-L1 (Example 2); format: cell-based, mouse; details: 8 μM berberine, 8 days
Protocol: Detailed protocol was described as our previous report (Hu et al., Phytomedicine (2009) 16(9):864-873).
Oil-Red-O staining and quantification: Oil-Red-O Staining and its quantification were performed as previously reported (Liu et al., Sinica (2004) 25:1052-1057). Briefly, medium was removed and cells were washed with PBS twice, fixed with 3.7% formalin at room temperature for 30 min, then rinsed with pure water, added 60% isopropanol and incubated for 5 minutes, then moved out isopropanol and stained cells with diluted Oil-Red-O solution (Oil-Red-O store solution (3 mg/ml in pure isopropanol): water=3:2) at room temperature for 10 min. Then the diluted Oil-Red-O solution was removed and cells were washed 3 times with pure water. Images were obtained using an Olympus IX70 inverted microscope equipped for phase-contrast microscopy (Olympus, Tokyo, Japan). After staining, the cells were washed twice with 70% ethanol to remove excess stain. Stained oil droplets in the cells were dissolved in isopropanol containing 4% Nonidet-P40 (Fisher Scientific, Pittsburgh, Pa., USA) shaking in 37° C. at speed 100 rpm for 1 hour, and OD values were measured at an absorbance of 490 nm and then normalized with control group.

[2] = Serum glucose assay in mice; format: in vivo, mouse
Protocol: (§1) Six mice per subgroup were obtained finally.
(§2) Serum glucose, triglyceride, cholesterol assay: Blood samples from each mouse were collected and serum was separated by centrifugation for the measurement of levels of glucose, triglyceride and total cholesterol. Serum glucose concentrations were analyzed using Glucose (HK) Assay Kit (Sigma-aldrich, Saint Louis, Mo., USA). Serum triglyceride concentrations were analyzed using Serum Triglyceride Determination Kit (Sigma-aldrich, Saint Louis, Mo., USA). Serum cholesterol concentrations were analyzed using Amplex® Red Cholesterol Assay Kit (Invitrogen, Carlsbad, Calif., USA). All experimental assays were done according to the manufacturer's instructions.

GATA-3 = assay: Immunoblot, GATA-3 protein in epididymal fat of FD mice; format: in vivo, mouse
Protocol: (§3) RNA and protein purification and quantification from epididymal fat tissues: RNA and protein was isolated from 60 mg of epididymal fat tissues with Trizol (Invitrogen, Carlsbad, Calif., USA) following the protocol recommended by the manufacturers. RNA was dissolved in pure water and quantified at 260/280 nm, and sample integrity was checked by 1.5% agarose gel electrophoresis. Protein concentration was determined using the Micro BCA Protein Assay Kit (Fisher Scientific, Pittsburgh, Pa., USA) according to the manufacturer's instructions.
Immunoblot Analysis: Protein expression of GATA-2, GATA-3, PPARγ and C/EBPα in the control of β-actin was assessed by Western Blot. Protein samples from the same group were homogenized as previously reported (Hu and Davies, Phytomedicine (2009) 16:864-873). Protein (25 μg) was separated by polyacrylamide gel electrophoresis using the BioRad Electrophoretic System (60 V for 1 h followed by 90 V for 5 h). The proteins were then transferred to nitrocellulose membranes at 35 V overnight. The membrane was blocked for 1 h at room temperature in 5% nonfat milk in Tris-buffered saline (TBS), then washed with Tween-20-TBS (TTBS, 0.1% Tween-20) three times (15 min, 5 min, 5 min), followed by incubation with primary antibodies mouse GATA-2, GATA-3 (dilution 1:200), PPARγ, C/EBPα and β-actin (dilution 1:500) at room temperature for 2 h (all antibodies were purchased from Santa Cruz Biotechnology, Santa Cruz, Calif., USA). The membrane was rinsed three times (15 min, 5 min, 5 min), then incubated at room temperature for 1 h with horseradish peroxidase-conjugated second antibody (1:10,000). The membrane was then incubated in ECL reagent (GE Healthcare, Piscataway, N.J., USA) for 1 min. Protein was visualized using the UVP image analysis system (UVP, Upland, Calif., USA).

[3] = Serum triglyceride assay in mice; format: in vivo, mouse
Protocol: as §1, §2

GATA-2 [4] = assay: Immunoblot, GATA-2 protein in epididymal fat of FD mice; format: in vivo, mouse; details: berberine treatment
Protocol: as §3
Immunoblot Analysis: Protein expression of GATA-2, GATA-3, PPARγ and C/EBPα in the control of β-actin was assessed by Western Blot. Protein samples from the same group were homogenized as previously reported (Hu and Davies, Phytomedicine (2009) 16:864-873). Protein (25 μg) was separated by polyacrylamide gel electrophoresis using the BioRad Electrophoretic System (60 V for 1 h followed by 90 V for 5 h). The proteins were then transferred to nitrocellulose membranes at 35 V overnight. […]

[5] = FD mice, 1.5 mg/kg/day, 36 days

COc1ccc2cc3[n+](cc2c1OC)CCc1cc2c(cc1-3)OCO2.[Cl-] [berberine, Berberine (Chloride Form)]
GATA-2 protein expression (GATA-2 [1]): increase
reduction in lipid content vs no berberine treated group (3T3-L1 cells; 15 μM clozapine group): 78.5%
reduction in lipid content vs no berberine treated group (3T3-L1 cells; 25 μM risperidone group): 78.7%
reduction in lipid content vs no berberine treated group (3T3-L1 cells; 30 μM clozapine group): 73.2%
reduction in lipid content vs no berberine treated group (3T3-L1 cells; 50 μM risperidone group): 81%
reduction in lipid content vs no berberine treated group (3T3-L1 cells; control group (clozapine series)): 70%
reduction in lipid content vs no berberine treated group (3T3-L1 cells; control group (risperidone series)): 72%
reduction of serum glucose level vs control treated subgroup ([2]; FD mice, 0.75 mg/kg/day): 19.5%
fasting serum glucose level ([2]; FD mice, 0.75 mg/kg/day, 36 days (control 195.4±27.3)): 157.3 ± 22.5 mg/dL
reduction of serum glucose level vs control treated subgroup ([2]; FD mice, 1.5 mg/kg/day): 22.3%
fasting serum glucose level [2, 5]: 151.8 ± 21.1 mg/dL
reduction of serum glucose level vs control treated subgroup ([2]; FD mice, 3 mg/kg/day): 26.5%
fasting serum glucose level ([2]; FD mice, 3 mg/kg/day, 36 days): 143.5 ± 12.7 mg/dL
fasting serum glucose level ([2]; ND mice, 3 mg/kg/day (control 120.6±27.5)): 130.9 ± 16.2 mg/dL
GATA-3 protein expression increased to (GATA-3; 0.75 mg/kg/day): 2.2 fold
GATA-3 protein expression increased to (GATA-3; 1.5 mg/kg/day): 2.5 fold
GATA-3 protein expression increased to (GATA-3; 3 mg/kg/day): 6.9 fold
reduction of serum triglyceride level vs control treated group ([3]; FD mice, 0.75 mg/kg/day): 31.2%
serum triglyceride level ([3]; FD mice, 0.75 mg/kg/day, 36 days (control 135.6±17.0)): 93.2 ± 20.8 mg/dL
reduction of serum triglyceride level vs control treated group ([3]; FD mice, 1.5 mg/kg/day): 25.2%
serum triglyceride level [3, 5]: 101.4 ± 9.7 mg/dL
reduction of serum triglyceride level vs control treated group ([3]; FD mice, 3 mg/kg/day): 37.8%
serum triglyceride level ([3]; FD mice, 3 mg/kg/day, 36 days): 84.3 ± 18 mg/dL
serum triglyceride level ([3]; ND mice, 3 mg/kg/day (control 70.7±14)): 70.7 ± 12.8 mg/dL
quantitative protein expression of GATA-2 (GATA-2 [4]): did not appear to be significantly changed
